The values that follow are results of earlier work, collected in patent US20060253014A1 (priority 2003, published 2006).

Read-outs that look alike come from different tables or passages of the source.

The data set deals with inbred mouse strains.

Consider `Clc1cccc(Cl)c1N=C1NCCN1` [Clonidine, clonidine], for which the “Sensitive Strains (low AD50)” value (murine strains, AD50 = the half-maximal antinociceptive dose) was 129P3, A, AKR,.

Turning to `Clc1ccc(C2CC3CCC2N3)cn1` (stereo not drawn) [Epibetadine, epibatidine], for the setting “mouse, in vivo”, the “Resistant Stains (high AD50)” value is given as “AKR, CBA, C57BL/10” and the “Sensitive Strains (low AD50)” value was “A, BALB/c”. Consider `Cc1c(C(=O)c2cccc3ccccc23)c2cccc3c2n1[C@H](CN1CCOCC1)CO3` [WIN 55, 212-2], for which, under “mouse, in vivo”, the “Resistant Stains (high AD50)” value is “AKR, C57BL/10, C58” and the “Sensitive Strains (low AD50)” value is given as 129P3, A, DBA/2. For `CN1CC[C@]23c4c5ccc(O)c4O[C@H]2[C@@H](O)C=C[C@H]3[C@H]1C5` [morphine], the “Sensitive Strains (low AD50)” value (mouse, in vivo) is given as 129P3, C3H/He, DBA/2.
